What was measured:
VR1 nociceptor = VR1 nociceptor (Rattus norvegicus, UniProt O35433); experiment: Blocking of capsaicin-activated ionic current in X. laevis ovocites expressing the VR1 nociceptor (two-microelectrode voltage clamp); type: cell-based; details: activated by capsaicin 20 μM, -80 mV, read-out: concentration that inhibited half the VR1 nociceptor response (IC50)
Text: This test comprises the contacting of X. laevis ovocites that express the VR1 nociceptor or glutamatergic receptors with an agonist (ligand) for said VR1 nociceptor, for example, capsaicin or L-glutamate, in the presence or absence of the compound to be tested, maintaining the transmembrane voltage constant at −80 mV, and to detect the inhibiting activity of said compound to be tested by measuring the ionic current activated by the agonist in the presence and absence of the compound to be tested. The power and efficiency of the inhibiting activity of the compound to be tested can be determined by obtaining the dose-response curves. For this, the magnitude of the ionic current blockage activated by the X. laevis ovocite agonist that express the receptors in the presence of growing concentrations of the compound to be tested, is examined. The ionic current intensities ratio, in the presence and absence of the compound to be tested, allows to obtain the dose-response curves (19, 20). These graphs meet logarithmic functions to determine the maximum blockage (power) and the antagonist concentration that is produced by half the maximum blockage (IC50 efficiency).
Briefly, the X. laevis ovocites of adult frogs are gathered, manipulated, and injected with cDNA that codes the VR1 nociceptor (5, 19). The ionic currents activated by the capsaicin agonist are recorded with the maintenance of the constant voltage technique with two microelectrodes (two-microelectrode voltage clamp) (19, 20). The ovocites that express the VR1 nociceptor are transferred to the recording chamber and perfunded using an 8-output perfusion system. […] The inhibiting activity is detected by measuring the ionic current activated by the agonist in the presence and absence of the N-alkylglycine trimeres.
The power and efficiency of the inhibitory activity of N-alkylglycine trimeres is determined by obtaining the dose-response curves. […]

[1] = tested on: irritation produced by topical capsaicin in the eye; experiment: Ocular pain model: scratches after topical capsaicin in the eye of a mouse; type: in vivo; details: scratches during 1 minute, second capsaicin application with compound vs first without
Protocol: An investigation was performed on the attenuation of the N-alkylglycine trimeres indicated in Table 1, on the irritation produced by the topical application of capsaicin in the eyes of animals, an ocular pain model (22). The experimental paradigm compares the number of scratches after the topical administration of capsaicin at 0,01% in the eye of a mouse, in the absence and presence of the N-alkylglycine trimeres. After the administration of capsaicin, the number of times the mouse scratches its treated eye during 1 minute is counted. Subsequently, the affected eye is extensively rinsed with saline solution and 15 minutes after application, the compound to be tested is administered. After 5 minutes incubation, a 0,1% capsaicin solution containing the compound to be tested is administered. The number of times the animal scratches its eye during 1 minute is immediately counted. The analgesic capacity is obtained by comparing the number of scratches in the first application of capsaicin (without the compound to be tested) and the second application of the irritant (in the presence of the compound to be tested). A decrease of scratches in the second application of capsaicin is indicative of an analgesic activity of the N-alkylglycine trimere tested.

[2] = molecular target: NMDA receptor (NR1 and NR2A subunities) (Homo sapiens, UniProt Q05586+Q12879); experiment: Blocking of L-glutamate/glycine-activated ionic current in X. laevis ovocites expressing the NMDA receptor (two-microelectrode voltage clamp); type: cell-based; details: activated by L-glutamate/glycine 100 μM/20 μM, -80 mV, read-out: concentration that inhibited half the NMDA receptor response (IC50)
NMDA receptor (NR1 and NR2A subunities), sequence (Q12879 23-1464, other chains not shown): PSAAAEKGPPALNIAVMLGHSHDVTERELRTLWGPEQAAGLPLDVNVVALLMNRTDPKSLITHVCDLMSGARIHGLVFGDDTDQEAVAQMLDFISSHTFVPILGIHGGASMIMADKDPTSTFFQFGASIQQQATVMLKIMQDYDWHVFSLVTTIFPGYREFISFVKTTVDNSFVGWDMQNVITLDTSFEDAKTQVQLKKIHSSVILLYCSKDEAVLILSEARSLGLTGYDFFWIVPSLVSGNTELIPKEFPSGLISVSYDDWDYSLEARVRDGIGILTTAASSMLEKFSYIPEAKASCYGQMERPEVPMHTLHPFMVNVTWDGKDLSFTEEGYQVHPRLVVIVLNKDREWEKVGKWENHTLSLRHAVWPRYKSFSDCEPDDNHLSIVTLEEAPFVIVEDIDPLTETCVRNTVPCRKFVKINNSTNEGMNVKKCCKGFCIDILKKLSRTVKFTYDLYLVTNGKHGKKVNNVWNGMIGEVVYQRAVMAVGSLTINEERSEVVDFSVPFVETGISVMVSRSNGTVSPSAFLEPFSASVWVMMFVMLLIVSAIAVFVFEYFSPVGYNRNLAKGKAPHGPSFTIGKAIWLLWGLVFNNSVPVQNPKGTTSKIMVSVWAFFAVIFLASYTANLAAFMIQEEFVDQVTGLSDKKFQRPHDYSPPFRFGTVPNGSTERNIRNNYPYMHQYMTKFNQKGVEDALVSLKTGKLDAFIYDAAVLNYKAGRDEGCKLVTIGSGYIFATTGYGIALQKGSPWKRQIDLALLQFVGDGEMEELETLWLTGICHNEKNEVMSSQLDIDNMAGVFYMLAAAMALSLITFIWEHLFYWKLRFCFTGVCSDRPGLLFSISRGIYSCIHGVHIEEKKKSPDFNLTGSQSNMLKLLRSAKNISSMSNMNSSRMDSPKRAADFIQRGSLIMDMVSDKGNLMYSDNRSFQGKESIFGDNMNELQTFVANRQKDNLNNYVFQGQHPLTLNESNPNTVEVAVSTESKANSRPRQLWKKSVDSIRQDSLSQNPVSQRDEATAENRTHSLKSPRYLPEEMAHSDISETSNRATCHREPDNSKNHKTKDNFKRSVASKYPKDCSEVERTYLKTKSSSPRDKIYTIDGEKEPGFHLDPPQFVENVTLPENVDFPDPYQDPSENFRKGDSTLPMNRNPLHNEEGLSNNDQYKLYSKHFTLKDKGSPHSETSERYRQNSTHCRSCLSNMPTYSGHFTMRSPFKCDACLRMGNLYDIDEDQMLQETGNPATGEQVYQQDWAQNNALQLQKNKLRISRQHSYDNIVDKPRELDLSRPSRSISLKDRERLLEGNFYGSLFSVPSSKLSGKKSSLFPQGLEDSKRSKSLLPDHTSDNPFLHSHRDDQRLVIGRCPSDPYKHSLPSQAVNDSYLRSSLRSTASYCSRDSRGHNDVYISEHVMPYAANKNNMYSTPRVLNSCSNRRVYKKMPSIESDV
Text: In order to evaluate the biological activity of the N-alkylglycine trimeres obtained in Example 1.1 on type NMDA glutamatergic receptors, a test was developed that evaluated the efficiency and power of said compounds blocking the ionic current activated by X. laevis ovocite agonist that express the type NMDA receptor, the […].
The heterologeous expression of receptors in X. laevis ovocites may be carried out according to the procedure described by Ferrer-Montiel and Montal (19). Briefly, the X. laevis ovocites of adult frogs are gathered, manipulated and injected with cRNA that codes the NR1 and NR2A subunities of the NMDA receptor (5, 20). The ionic currents activated by L-glutamate agonist in the presence of the glycine coagonist are recorded with the constant voltage maintenance technique with two microelectrodes (two-microelectrode voltage clamp) (19, 20). The ovocites that express the receptor are transferred to the recording chamber and perfunded using an 8-output perfusion system. The agonist and the coagonist, both in the absence and in the presence of the N-alkylglcycine trimeres to be tested, are dissolved in a Ringer buffer (Hepes 10 mM pH 7,4 NaCl 100 mM, Ba Cl2, 2,0 mM, KCl 3,0 mM) supplemented with 100 μM fluphenamic acid (20). This buffered solution is used to minimize the contribution of the chloride endogenous ionic channel activated by calcium to the glutamatergic receptor ionic current (19, 20). The transmembrane voltage is kept constant at −80 mV and the ionic currents are activated by applying pulses of the L-glutamate/glycine solution (100 μM /20 μM) in the presence or absence of growing concentrations of the N-alkylglycine trimeres to be tested. The inhibiting activity is detected by measuring the ionic current activated by the agonist in the presence and absence of the N-alkylglycine trimeres.
The power and efficiency of the N-alkylglycine trimeres inhibiting activity is determined by obtaining the dose-response curves. […]

VR1 nociceptor, sequence (O35433 whole entry): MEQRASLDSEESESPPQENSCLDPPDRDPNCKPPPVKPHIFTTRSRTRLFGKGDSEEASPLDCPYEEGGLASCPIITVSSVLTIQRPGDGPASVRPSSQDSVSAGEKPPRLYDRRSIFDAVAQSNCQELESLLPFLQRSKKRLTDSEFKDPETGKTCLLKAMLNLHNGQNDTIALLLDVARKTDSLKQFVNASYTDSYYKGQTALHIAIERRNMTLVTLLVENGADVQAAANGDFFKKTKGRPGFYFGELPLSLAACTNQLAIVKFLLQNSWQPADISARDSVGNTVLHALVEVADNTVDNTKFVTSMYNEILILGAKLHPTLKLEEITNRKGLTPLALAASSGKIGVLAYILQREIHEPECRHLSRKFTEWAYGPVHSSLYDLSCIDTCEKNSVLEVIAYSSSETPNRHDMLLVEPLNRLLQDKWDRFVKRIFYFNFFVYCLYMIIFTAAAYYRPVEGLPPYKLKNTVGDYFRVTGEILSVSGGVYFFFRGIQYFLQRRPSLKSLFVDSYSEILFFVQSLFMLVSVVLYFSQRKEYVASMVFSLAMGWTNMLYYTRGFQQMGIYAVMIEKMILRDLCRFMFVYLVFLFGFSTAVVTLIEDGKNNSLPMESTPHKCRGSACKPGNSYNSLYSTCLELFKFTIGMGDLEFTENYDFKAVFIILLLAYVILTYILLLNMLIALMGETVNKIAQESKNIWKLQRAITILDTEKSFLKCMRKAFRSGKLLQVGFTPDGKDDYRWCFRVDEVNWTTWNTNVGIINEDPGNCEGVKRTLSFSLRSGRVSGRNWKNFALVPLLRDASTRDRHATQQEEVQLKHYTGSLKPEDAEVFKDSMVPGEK

Question: What does the source list for `CN1CCCC1CCNCC(=O)N(CCc1ccc(Cl)cc1Cl)CC(=O)N(CCc1ccc(Cl)cc1Cl)CC(N)=O` (racemic) [compound [4], [N-[(R,S)-2-[2-(N-methyl)pyrrolidinyl]ethyl]glycyl]-[N-(2,4-dichlorophenethyl)glycyl]-N-(2,4-dichlorophenethyl)glycinamide]?
Answer: IC50 (VR1 nociceptor): ~1 µM; attenuation of the ocular irritation produced by capsaicin [1]: approximately 40%

Question: For `CCN(CC)CCCNCC(=O)N(CCc1ccc(Cl)cc1Cl)CC(=O)N(CCC(C)C)CC(N)=O` [compound [7], [N-[3-(N,N-diethylamine)propyl]glycyl]-[N-(2,4-dichlorophenethyl)glycyl]-N-(3-methylbutyl)glycinamide], which IC50 (VR1 nociceptor) is on record?
Answer: ~30 µM

Question: Which IC50 (VR1 nociceptor) does the source give for `CCN(CC)CCCNCC(=O)N(CCc1ccc(Cl)cc1Cl)CC(=O)N(CCc1ccc(Cl)cc1Cl)CC(N)=O` [compound [8], [N-[3-(N,N-diethylamine)propyl]glycyl]-[N-(2,4-dichlorophenethyl)glycyl]-N-(2,4-dichlorophenethyl)glycinamide] here?
Answer: ~2 µM

Question: What about the “attenuation of the ocular irritation produced by capsaicin” value [1] of the same compound?
Answer: approximately 20%

Question: For `CCN(CC)CCCN(CC(=O)N(CCc1ccc(Cl)cc1Cl)CC(N)=O)C(=O)CNCCC(c1ccccc1)c1ccccc1` [compound [9]], which IC50 [2] is on record?
Answer: 1 µM

Question: Which IC50 [2] does the source give for `CCN(CC)CCCN(CC(=O)N(CCc1ccccn1)CC(N)=O)C(=O)CNCCC(c1ccccc1)c1ccccc1` [compound [10]] here?
Answer: ~2 µM

Question: Which IC50 [2] does the source give for `CCN(CC)CCCN(CC(=O)N(CCn1ccnc1)CC(N)=O)C(=O)CNCCC(c1ccccc1)c1ccccc1` [compound [11]] here?
Answer: ~10 µM
